Experimental data from patent publication US9040524B2, “Antifungal 5,6-dihydro-4H-pyrrolo[1,2-a][1,4]-benzodiazepines and 6H-pyrrolo[1,2-a][1,4]benzodiazepines substituted with bicycle benzene derivatives” (JANSSEN PHARMACEUTICA NV, priority 2010, dated 2015).

Tests used:
Scedosporium prolificans = assay: Antifungal activity in vitro, resazurin growth inhibition screen: Scedosporium prolificans; format: cell-based; settings: Lomentospora prolificans; Scedosporium prolificans IHEM21157; read-out: Inf. I pIC50 (converted)
How it was run: (§1)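 Compounds were serially diluted 2- or 4-fold from DMSO stock with an intermediate water step, tested up to 64 μM final. Each well received 10^3 cfu of cryopreserved fungus in RPMI-MOPS medium. Resazurin served as the growth read-out, with drug-free culture as 100% growth and medium alone as 0%.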

Cryptococcus neoformans = assay: Antifungal activity in vitro, resazurin growth inhibition screen: Cryptococcus neoformans; format: cell-based; settings: Cryptococcus neoformans B66663; read-out: Inf. F pIC50 (converted)
How it was run: as §1

Rhizomucor miehei = assay: Antifungal activity in vitro, resazurin growth inhibition screen: Rhizomucor miehei; format: cell-based; settings: Rhizomucor miehei IHEM13391; read-out: Inf. K pIC50 (converted)
How it was run: as §1

Aspergillus fumigatus = assay: Antifungal activity in vitro, resazurin growth inhibition screen: Aspergillus fumigatus; format: cell-based; settings: Aspergillus fumigatus B42928; read-out: Inf. E pIC50 (converted)
How it was run: as §1

[1] = tested on: Trichophyton mentagrophytes; assay: Antifungal activity in vitro, resazurin growth inhibition screen: Trichophyton mentagrophytes; format: cell-based; settings: Trichophyton mentagrophytes B70554; read-out: Inf. G pIC50 (converted)
How it was run: as §1

Scedosporium apiospermum = assay: Antifungal activity in vitro, resazurin growth inhibition screen: Scedosporium apiospermum; format: cell-based; settings: Scedosporium apiospermum IHEM3817; read-out: Inf. H pIC50 (converted)
How it was run: as §1

Microsporum canis = assay: Antifungal activity in vitro, resazurin growth inhibition screen: Microsporum canis; format: cell-based; settings: Microsporum canis B68128; read-out: Inf. B pIC50 (converted)
How it was run: as §1

Sporothrix schenkii = assay: Antifungal activity in vitro, resazurin growth inhibition screen: Sporothrix schenkii; format: cell-based; settings: Sporothrix schenkii B62482; read-out: Inf. A pIC50 (converted)
How it was run: as §1

Trichophyton rubrum = assay: Antifungal activity in vitro, resazurin growth inhibition screen: Trichophyton rubrum; format: cell-based; settings: Trichophyton rubrum B68183; read-out: Inf. C pIC50 (converted)
How it was run: as §1

Candida parapsilosis = assay: Antifungal activity in vitro, resazurin growth inhibition screen: Candida parapsilosis; format: cell-based; settings: Lodderomyces parapsilosis; Candida parapsilosis B66126; read-out: Inf. D pIC50 (converted)
How it was run: as §1

Rhizopus oryzae = assay: Antifungal activity in vitro, resazurin growth inhibition screen: Rhizopus oryzae; format: cell-based; settings: Rhizopus arrhizus; Rhizopus oryzae IHEM5223; read-out: Inf. J pIC50 (converted)
How it was run: as §1

IC50 (Scedosporium prolificans)	IC50 (Cryptococcus neoformans)	IC50 (Rhizomucor miehei)	IC50 (Aspergillus fumigatus)	IC50 [1]	melting point	IC50 (Scedosporium apiospermum)	IC50 (Microsporum canis)	IC50 (Sporothrix schenkii)	IC50 (Trichophyton rubrum)	IC50 (Candida parapsilosis)	IC50 (Rhizopus oryzae)	SMILES
39.8 nM	339 nM	933 nM	46.8 nM	603 nM	180 to 181.5 °C	120 nM	490 nM	1380 nM	170 nM	1410 nM	2000 nM	Clc1cccc2c1CN=C(c1ccc3c(c1)CCCC3)c1cccn1-2 [Compound 21, 7-chloro-4-(5,6,7,8-tetrahydro-2-naphthalenyl)-6H-pyrrolo[1,2-a][1,4]benzo-diazepine]
110 nM	1320 nM	4790 nM	363 nM	562 nM	226.7 to 227.6 °C	447 nM	170 nM	2240 nM	182 nM	2880 nM	> 64600 nM	O=C1CCc2cc(C3=NCc4c(Cl)cccc4-n4cccc43)ccc21 [Compound 56, 5-(7-chloro-6H-pyrrolo[1,2-a][1,4]benzodiazepin-4-yl)-2,3-dihydro-1H-inden-1-one]
